Laboratory results taken from PMC12195677, “In Vitro Effect of Ferruginol, Tanshinone, and Carnosol Analogues on the Proliferation of Three Breast Cancer Cell Lines” (Molecules, 2025).
Where two headings read alike, the source gives them in different places.

How the values were obtained:
SUM149 [1] = details: cited from earlier work; for TI (therapeutic index) SUM149: EC50 BJ fibroblasts / EC50 SUM149; for Effectiveness against SUM149 cell line (in words): conclusions, Table 1 values of these compounds ref 13
[2] = tested on: MDA-MB231 breast cancer cells; test: Cell morphology by brightfield microscopy; type: cell-based, Human; details: 24 h treatment, brightfield 10×; 1 and 6 at 5 μM, 10 at 10 μM
Source text: Brightfield microscopy images of MDA-MB231 breast cancer cells are indicated in Figure 6 to highlight the morphological changes that occur upon treatment with compounds 1, 6, and 10 as representative compounds. […] The precise mechanism of cell death for other compounds remained unclear.
Representative images were collected using 10× objective with a Leica DMi1 Microscope (Leica microsystems, Wetzlar, Germany). MDA-MB231 cells were imaged with a vehicle as the negative control, staurosporine as the positive control (2 μM), or compounds with results shown in representative images for 24 h.

MDA-MB231 [3] = details: cited from earlier work; for TI (therapeutic index) MDA-MB231: EC50 BJ fibroblasts / EC50 MDA-MB231
human BJ fibroblasts = details: cited from earlier work
SUM149 cells = test: Colony formation (clonogenic) assay, SUM149; type: cell-based, Human; details: 10 μM
Experimental: Further evaluation of various promising compounds using breast cancer cells included analysis of colony-forming inhibition capabilities and investigations into their specific mechanistic pathways of action. Thus, the anchorage-dependent colony formation assay, also known as the clonogenic assay, was conducted. This method in cancer research evaluates the ability of single cells to grow into colonies when attached to a surface and can measure a cell’s ability to undergo “unlimited” division and form a colony (usually defined as ≥50 cells).
The clonogenic assay offers comprehensive insights into the compound’s overall efficacy and is regarded as the definitive method for assessing post-treatment reproductive cell death (both cytotoxic and cytostatic effects). The extended duration of the experiment simultaneously provides valuable data on the compounds’ stability over time, which are not detected in short-term viability assays. […] In the MDA-MB231 cellular model (Figure 3), the evaluated compounds successfully eliminated the cells’ capacity to establish colonies (for images, see Figures S3 and S4).
MDA-MB-231 (0.8 × 10^6 cells/well) and SUM-149 cells (1.5 × 10^6 cells/well) were plated on a 6-well plate. Two days later, cell media was changed to 5% FBS, and cells were incubated at 37 °C in a 5% CO2 atmosphere for 1 h before the vehicle (0.1% DMSO) or compound (5–10μM) was added. After 72 h of treatment, cells were trypsinized and reseeded at 800 cells/mL (MDA-MB231) and 1200 cells/mL (SUM149) per well in 6-well plates. After 10 days of culture, the media was removed from the wells and washed once with cold PBS. The colonies were stained with 5 mL of 1% Crystal Violet for 30 min. The dishes were fixed by methanol, rinsed with water three times, and air-dried, and the colonies were counted using ImageJ version 1.5.4 (NIH, Bethesda, MD, USA).

MCF07 [4] = details: cited from earlier work; for TI (therapeutic index) MCF07: EC50 BJ fibroblasts / EC50 MCF07
[5] = tested on: several breast cancer cell lines; parameters: method as in PMID 36831660; details: cited from earlier work; for therapeutic index range: range over the named compounds and cell lines (Table 1)
MDA-MB231 [6] = test: CellTiter-Glo cell viability/proliferation assay, MDA-MB231; type: cell-based, Human; details: for TI (therapeutic index) MDA-MB231: EC50 BJ fibroblasts / EC50 MDA-MB231; for IC50: Homo sapiens, MDA-MB-231, 72 h incubation, CellTiter-Glo, mean ± SD, read-out: Cytotoxicity IC50, MDA-MB231
Experimental: (§1) The compounds were systematically assessed through multiple biological testing platforms to establish their relative effectiveness and explore potential correlations between chemical structure and biological function. Firstly, their ability to inhibit the proliferation of three specific breast cancer linages (SUM149, MDA-MB231, MCF07) was evaluated in vitro by using the established CellTiter-Glo® [18, 19] cellular proliferation assay.
(§2) Human cell lines were incubated at 37 °C in a 5% CO2 atmosphere and maintained under sterile conditions. Cells were tested for Mycoplasma (Lonza, Alpharetta, GA, USA) using the manufacturer’s conditions prior to experiments. Cell lines were purchased from American Type Culture Collection (ATCC, Manassas, VA, USA), and SUM149 was obtained from Asterand (Detroit, MI, USA) and cultured without antibiotics unless stated. Cells were cultured in Eagle’s Minimum Essential Medium (EMEM), DMEM, or F12 from ATCC supplemented with 10% fetal bovine serum (FBS, Hyclone, Logan, UT, USA) and 1% GlutaMAX. Human BJ fibroblast cells (ATCC, CRL-2522) were supplemented with 10% fetal bovine serum (FBS, Hyclone, Logan, UT, USA) and 1% GlutaMAX. BJ cells were cultured in EMEM media, and breast cancer cells (MDA-MB-231, MCF07) were cultured in DMEM. SUM149 was cultured in Ham’s F12 supplemented with 1% GlutaMAX,1% Pen/Step, 2 μM cortisol, and 1 ug/mL insulin. Cells were grown to 80% confluence densities as recommended by ATCC.
(§3) Cytotoxicity evaluation was performed using the CellTiter-Glo Luminescent Cell Viability Assay kit (G7570, Promega, Madison, WI, USA), according to the manufacturer’s instructions. Briefly, the cell concentrations used were experimentally determined to ensure logarithmic growth during the 72 h duration of the experiment and avoid adverse effects on cell growth by DMSO exposure. To proceed, […] cells/well were seeded in 96-well white flat-bottomed plates (#3610 Corning, Corning, NY, USA) in […]. The plates were incubated at 37 °C in 5% CO2 for 24 h before drugging. Test compounds (10 mM in DMSO) in eight 2-fold serial dilutions were dispensed to assay plates. The final concentration of DMSO was 0.3% (v/v) in each well. The positive controls included staurosporine (10 μM) and/or gambogic acid (10 μM). The plates were incubated for 72 h at 37 °C in 5% CO2, then quenched with CellTiter-Glo® (Promega, Madison, WI, USA, 50 uL/well), centrifuged at 1000 rpm for 1 min, and incubated at RT for 20 min. Luminescence was recorded with a plate reader (CLARIOstar Plus, BMG LabTech, Ortenberg, Germany). The mean luminescence of each experimental treatment group was normalized as a percentage of the mean intensity of untreated controls. EC50 values were calculated from dose-response curve-fitting via non-linear regression using GraphPad Prism 9.0 (GraphPad Software, San Diego, CA, USA). A therapeutic index (TI) between normal and tumor cell lines can be determined (EC50 non-neoplastic cell line BJ)/(EC50 cancer cell line).

SUM149 [7] = test: CellTiter-Glo cell viability/proliferation assay, SUM149; type: cell-based, Human; details: for TI (therapeutic index) SUM149: EC50 BJ fibroblasts / EC50 SUM149; for IC50: Homo sapiens, SUM149, 72 h incubation, CellTiter-Glo, mean ± SD, read-out: Cytotoxicity IC50, SUM149
Experimental: as §1, §2, §3

[8] = CellTiter-Glo cell viability assay, non-neoplastic BJ fibroblasts; type: cell-based; details: BJ fibroblast cells (non-neoplastic, ATCC CRL-2522), non-neoplastic human BJ fibroblasts, mean ± SD, read-out: Cytotoxicity IC50, BJ
Experimental: as §2, §3

MCF07 [9] = test: CellTiter-Glo cell viability/proliferation assay, MCF07; type: cell-based, Human; details: for TI (therapeutic index) MCF07: EC50 BJ fibroblasts / EC50 MCF07; for IC50: Homo sapiens, 72 h incubation, CellTiter-Glo, mean ± SD, read-out: Cytotoxicity IC50, MCF07
Experimental: as §1, §2, §3

[10] = read-out: Cytotoxicity IC50, SUM149, 72 h incubation, CellTiter-Glo, mean ± SD
[11] = read-out: Cytotoxicity IC50, MDA-MB231, 72 h incubation, CellTiter-Glo, mean ± SD
[12] = read-out: Cytotoxicity IC50, BJ, non-neoplastic human BJ fibroblasts, 72 h, CellTiter-Glo, mean ± SD
[13] = read-out: Cytotoxicity IC50, MCF07, 72 h incubation, CellTiter-Glo, mean ± SD

Compound	IC50 (SUM149 [1]; [10]) [µM]	TI (therapeutic index) MDA-MB231 (MDA-MB231 [3])	IC50 (MDA-MB231 [3]; [11]) [µM]	IC50 (human BJ fibroblasts; [12]) [µM]	TI (therapeutic index) MCF07 (MCF07 [4])	IC50 (MCF07 [4]; [13]) [µM]	TI (therapeutic index) SUM149 (SUM149 [1])	therapeutic index range [5]	TI (therapeutic index) MDA-MB231 (MDA-MB231 [6])	IC50 (MDA-MB231 [6]) [µM]	TI (therapeutic index) SUM149 (SUM149 [7])	IC50 (SUM149 [7]) [µM]	IC50 at 72 h [8] [µM]	TI (therapeutic index) MCF07 (MCF07 [9])	IC50 (MCF07 [9]) [µM]	also measured
CC(C)c1cc2c(cc1O)[C@@]1(C)CCCC(C)(C)[C@@H]1CC2 [Compound 1, ferruginol]	> 50	>6	8.3 ± 1.4	> 50	>3	19 ± 1.5										Morphological changes (early apoptosis) [2]: Membrane blebbing; Colony-forming ability of SUM149 cells (SUM149 cells): notable exceptions
CC(C)c1cc2c(cc1O)[C@@]1(C)CCC[C@@](C)(CN)[C@@H]1CC2 [Compound 2, 12-hydroxydehydroabietylamine]		15			7		17									IC50 (SUM149 [1]): 4.4 ± 0.3 µM; IC50 (MDA-MB231 [3]): 5.1 ± 0.6 µM; IC50 (human BJ fibroblasts): 75 ± 6.2 µM; IC50 (MCF07 [4]): 10 ± 1.5 µM
CC(C)c1cc2c(cc1O)[C@@]1(C)CCC[C@@](C)(CN3C(=O)c4ccccc4C3=O)[C@@H]1CC2 [Compound 5, 18-(phthalimid-2-yl)ferruginol]	4.4 ± 0.2	9	8.2 ± 0.5	74.8 ± 5.3	6	13 ± 0.6	17	6–43								
CC(C)c1cc2c(cc1O)[C@@]1(C)CCC[C@@](C)(CN3C(=O)c4cccc(F)c4C3=O)[C@@H]1CC2 [Compound 6]									7	9.4 ± 0.9	13	4.8 ± 0.2	63.5 ± 6.3	12	5.4 ± 0.6	Morphological changes (early apoptosis) [2]: Membrane blebbing
CC(C)c1cc2c(cc1O)[C@@]1(C)CCC[C@@](C)(CN3C(=O)c4ccc(F)cc4C3=O)[C@@H]1CC2 [Compound 7]									>7	7.6 ± 0.2	>12	4.3 ± 0.1	> 50	>7	7 ± 0.6	
COc1cccc2c1C(=O)N(C[C@]1(C)CCC[C@]3(C)c4cc(O)c(C(C)C)cc4CC[C@@H]13)C2=O [Compound 8, 12-Hydroxy-N,N-(3-methoxyphthaloyl)dehydroabietylamine]									≈1	54.6 ± 5	12	5.3 ± 0.1	61.2 ± 5.4	6	11 ± 1.4	
COc1ccc2c(c1)C(=O)N(C[C@]1(C)CCC[C@]3(C)c4cc(O)c(C(C)C)cc4CC[C@@H]13)C2=O [Compound 9, 12-Hydroxy-N,N-(4-methoxyphthaloyl)dehydroabietylamine]									7	8.2 ± 0.8	14	4.3 ± 0.2	58.9 ± 5.7	5	12 ± 1.2	
CC(C)C1=CC2=C(C(=O)C1=O)[C@@]1(C)CCC[C@@](C)(CN3C(=O)c4ccccc4C3=O)[C@@H]1CC2 [Compound 10]	1.5 ± 0.4	13	2.8 ± 0.4	35.4 ± 5	15	2.3 ± 1.1	24	6–43								Effectiveness against SUM149 cell line (in words) (SUM149 [1]): notable effectiveness; Morphological changes (early apoptosis) [2]: Membrane blebbing; Colony-forming ability of SUM149 cells (SUM149 cells): notable exceptions
COC(=O)[C@]1(C)CCC[C@]2(C)C3=C(C=C(C(C)C)C(=O)C3=O)CC[C@@H]12 [Compound 11]	1.3 ± 0.6	15	3.9 ± 0.8	56.5 ± 6.1	7	8.3 ± 0.9	43	6–43								Effectiveness against SUM149 cell line (in words) (SUM149 [1]): notable effectiveness; Colony-forming ability of SUM149 cells (SUM149 cells): notable exceptions
CC(C)c1cc2c(c(O)c1O)[C@@]1(C)CCC[C@@](C)(CN3C(=O)c4ccccc4C3=O)[C@@H]1CC2 [Compound 12]		12			7		18	6–43								IC50 (SUM149 [1]): 1.8 ± 0.2 µM; IC50 (MDA-MB231 [3]): 2.8 ± 0.2 µM; IC50 (human BJ fibroblasts): 32.5 ± 5 µM; IC50 (MCF07 [4]): 4.6 ± 0.6 µM
COC(=O)[C@]1(C)CCC[C@]2(C)c3c(cc(C(C)C)c(O)c3O)CC[C@@H]12 [Compound 13]		6			≈1		≈1									Bioactivity across the tested cell lines (in words) ([5]; conclusions, Table 1 values of this compound ref 13): minimal activity; IC50 (SUM149 [1]): > 50 µM; IC50 (MDA-MB231 [3]): 9.4 ± 0.4 µM; IC50 (human BJ fibroblasts): 57.6 ± 3 µM; IC50 (MCF07 [4]): > 50 µM
